Laboratory results from ChEMBL document CHEMBL1201862, “PubChem BioAssay data set” (2004).
Counter-ions that a name gives are not always drawn. Active and inactive are the calls of the source.

Legend:
Vero [1] = assay: cells; assay type: functional, cell-based; details: Chlorocebus sabaeus
Vero [2] = assay: cells; assay type: functional; details: Chlorocebus sabaeus
[3] = NIH3T3 cell viability loss – ATP luminescence, mouse fibroblasts, counter-screen, dose response (AID 2010); assay type: functional, cell-based;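 also: cells exposed to compound for about 90 hours before reading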
[4] = Trypanosoma cruzi growth suppression in host cells – NIH3T3 host cells, beta-gal luminescence, confirmation (AID 2044); assay type: functional, cell-based;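 also: intracellular parasites grown in NIH/3T3 mouse fibroblasts as host cells; luminescent beta-galactosidase reporter signal from transgenic T. cruzi replicating inside host cells; inhibitors lower the luminescence signal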
HEK293 [5] = assay: cells; details: Homo sapiens
[6] = molecular target: T1, Heat shock factor protein 1 (Mus musculus, UniProt P38532); assay: enhancement of HSF1-driven luciferase signal – cell-based, NIH3T3, luminescence, dose retest, confirmation (AID 435004); assay type: functional;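 also: stress induced by proteasome inhibitor MG132 added 30 min after compound; luciferase reporter driven by HSF1 response element in NIH3T3 cells; actives raise luminescence as potentiators of the MG132 stress response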
T1 sequence (P38532 whole entry): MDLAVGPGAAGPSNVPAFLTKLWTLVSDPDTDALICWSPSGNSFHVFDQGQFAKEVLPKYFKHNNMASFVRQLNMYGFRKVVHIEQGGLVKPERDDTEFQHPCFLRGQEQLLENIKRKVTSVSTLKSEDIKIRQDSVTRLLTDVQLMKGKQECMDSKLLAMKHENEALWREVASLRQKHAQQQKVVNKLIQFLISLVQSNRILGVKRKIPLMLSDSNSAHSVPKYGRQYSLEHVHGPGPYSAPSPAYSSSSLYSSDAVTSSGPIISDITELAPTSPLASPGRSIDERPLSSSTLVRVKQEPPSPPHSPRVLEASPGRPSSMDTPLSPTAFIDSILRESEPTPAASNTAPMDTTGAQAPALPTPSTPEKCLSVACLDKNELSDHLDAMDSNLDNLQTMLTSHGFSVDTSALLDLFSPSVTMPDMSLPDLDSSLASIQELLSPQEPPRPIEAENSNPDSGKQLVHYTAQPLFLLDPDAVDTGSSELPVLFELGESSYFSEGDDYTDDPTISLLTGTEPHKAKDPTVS

Protein RecA = molecular target: T2, Protein RecA (Mycobacterium tuberculosis, UniProt P9WHJ3); assay: Fluorescence Cell-Free Homogeneous Dose Retest to Identify Inhibitors of RecA-Intein Splicing Activity. [Related pubchem assays (depositor defined):AID2097, AID2223, AID489010, AID492950]; assay type: functional
T2 sequence (P9WHJ3 whole entry): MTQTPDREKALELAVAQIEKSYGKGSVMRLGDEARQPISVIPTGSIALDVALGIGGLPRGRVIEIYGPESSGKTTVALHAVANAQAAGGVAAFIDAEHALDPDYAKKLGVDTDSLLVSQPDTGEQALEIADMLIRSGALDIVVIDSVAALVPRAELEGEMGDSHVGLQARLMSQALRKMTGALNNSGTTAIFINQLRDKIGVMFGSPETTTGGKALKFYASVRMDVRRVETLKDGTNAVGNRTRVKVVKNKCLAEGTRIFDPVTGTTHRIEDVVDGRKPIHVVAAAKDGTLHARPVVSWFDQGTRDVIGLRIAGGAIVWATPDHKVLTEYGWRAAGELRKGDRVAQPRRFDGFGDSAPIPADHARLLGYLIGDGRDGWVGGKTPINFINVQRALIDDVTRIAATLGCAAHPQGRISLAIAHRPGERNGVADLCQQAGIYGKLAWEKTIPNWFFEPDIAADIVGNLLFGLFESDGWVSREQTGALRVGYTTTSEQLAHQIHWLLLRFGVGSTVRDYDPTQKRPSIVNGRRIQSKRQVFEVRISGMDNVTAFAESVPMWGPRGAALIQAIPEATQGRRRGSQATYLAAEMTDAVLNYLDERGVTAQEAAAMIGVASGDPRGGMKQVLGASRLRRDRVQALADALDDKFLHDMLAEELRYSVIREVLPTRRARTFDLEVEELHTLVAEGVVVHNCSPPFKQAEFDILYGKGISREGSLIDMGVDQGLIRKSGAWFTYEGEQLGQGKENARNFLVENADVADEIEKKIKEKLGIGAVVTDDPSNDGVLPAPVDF

[7] = blockers of bursicon-stimulated LGR2 cAMP reporter – cell-based, HEK293, CRE-luciferase reporter, cherry pick, set 2, dose response (AID 743343); assay type: functional;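 also: transfected cells were stimulated with diluted bursicon conditioned medium after compound addition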
[8] = Fluorescence-based cell-based high throughput dose response assay for inhibitors of the interaction of nucleotide-binding oligomerization domain containing 2 (NOD2) and the receptor-interacting serine-threonine kinase 2 (RIPK2).; assay type: functional; details: Homo sapiens
[9] = blockade of melanocortin 4 receptor signaling – cell-based, plate reader, cherry pick, counter-screen for LGR2 antagonist project, dose response (AID 743444); assay type: functional;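 also: transfected HEK 293 cells stimulated with alpha-MSH peptide; potency of inhibitors of the alpha-MSH evoked signal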
[10] = A549 cell cytotoxicity, dose response, cytotoxicity control, plate reader, cherry-pick, antagonist series (AID 743412); assay type: functional, cell-based
[11] = viability loss in HEK293 cells – cell-based, plate reader, cherry-picked samples, cytotoxicity control, dose response (AID 743446); assay type: functional
[12] = molecular target: T3, Replicative DNA helicase DnaB (Mycobacterium tuberculosis, UniProt P9WMR3); assay: DnaB intein splicing inhibitors, dose response, biochemical, cell-free fluorescence (AID 449749); assay type: functional
T3 sequence (P9WMR3 whole entry): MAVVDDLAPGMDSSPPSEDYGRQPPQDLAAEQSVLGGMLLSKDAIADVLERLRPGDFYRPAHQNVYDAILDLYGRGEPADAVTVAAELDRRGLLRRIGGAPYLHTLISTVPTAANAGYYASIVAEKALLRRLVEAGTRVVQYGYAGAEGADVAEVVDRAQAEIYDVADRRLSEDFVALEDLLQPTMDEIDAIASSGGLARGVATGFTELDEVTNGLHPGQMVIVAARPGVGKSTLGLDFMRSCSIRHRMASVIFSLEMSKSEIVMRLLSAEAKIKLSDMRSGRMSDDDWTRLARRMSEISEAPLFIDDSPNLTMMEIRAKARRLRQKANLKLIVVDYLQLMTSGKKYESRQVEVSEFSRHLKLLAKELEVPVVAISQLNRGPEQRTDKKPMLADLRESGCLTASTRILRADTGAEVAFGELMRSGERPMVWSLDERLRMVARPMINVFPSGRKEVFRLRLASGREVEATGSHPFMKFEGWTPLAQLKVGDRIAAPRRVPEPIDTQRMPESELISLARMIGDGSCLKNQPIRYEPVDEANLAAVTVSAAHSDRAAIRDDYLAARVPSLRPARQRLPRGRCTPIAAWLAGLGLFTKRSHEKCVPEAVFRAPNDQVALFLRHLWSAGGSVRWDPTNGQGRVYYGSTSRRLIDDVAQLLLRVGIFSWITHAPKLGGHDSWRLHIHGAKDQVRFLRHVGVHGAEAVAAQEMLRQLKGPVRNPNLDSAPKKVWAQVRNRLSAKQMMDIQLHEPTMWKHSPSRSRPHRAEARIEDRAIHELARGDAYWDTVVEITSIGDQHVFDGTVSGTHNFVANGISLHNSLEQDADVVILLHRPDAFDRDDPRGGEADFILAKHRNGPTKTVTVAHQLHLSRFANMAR

[13] = toxicity toward HepG2 liver cells – cell-based, plate reader, cherry-pick, antagonist series, cytotoxicity control, dose response (AID 743416); assay type: functional
HEK293 [14] = assay: cells; details: Homo sapiens; remark: listed apart in the source
[15] = molecular target: Beta-2 adrenergic receptor (Homo sapiens, UniProt P07550); assay: ADRB2 activation measured by internalization – cell-based, FAP fluorogen, flow cytometry, cherry pick 1, dose response (AID 588763); assay type: functional
Phospholipase A2 = Phospholipase A2 (Homo sapiens, UniProt P04054); assay type: functional;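 also: confirmatory dose-response counterscreen on phospholipase A2, testing hits that came from an ultra-high-throughput screen for ATG4B inhibitors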
Cysteine protease ATG4B = molecular target: T4, Cysteine protease ATG4B (Homo sapiens, UniProt Q9Y4P1); assay type: functional;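 also: Fluorescence-based dose-response confirmation assay measuring inhibition of ATG4B activity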
T4 sequence (Q9Y4P1 whole entry): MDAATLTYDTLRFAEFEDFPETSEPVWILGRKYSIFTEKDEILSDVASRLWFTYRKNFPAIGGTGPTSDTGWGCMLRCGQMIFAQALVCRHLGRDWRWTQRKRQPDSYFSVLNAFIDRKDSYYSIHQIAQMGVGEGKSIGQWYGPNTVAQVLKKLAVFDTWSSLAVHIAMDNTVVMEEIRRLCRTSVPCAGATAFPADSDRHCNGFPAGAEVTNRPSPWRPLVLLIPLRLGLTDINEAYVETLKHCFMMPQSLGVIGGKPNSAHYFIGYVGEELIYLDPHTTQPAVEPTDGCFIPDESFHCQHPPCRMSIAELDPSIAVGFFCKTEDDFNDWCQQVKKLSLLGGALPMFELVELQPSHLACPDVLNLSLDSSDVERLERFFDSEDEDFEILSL

[16] = molecular target: Glucose-6-phosphate 1-dehydrogenase (Homo sapiens, UniProt P11413); assay: inhibition of Homo sapiens G6PD, dose series – biochemical, fluorescence, selectivity assay for P. falciparum G6PD inhibitor project, dose response (AID 504792); assay type: functional
[17] = molecular target: DNA (cytosine-5)-methyltransferase 1 (Homo sapiens, UniProt P26358); assay: inhibition of DNA methylation by DNMT1 – biochemical, fluorescent molecular beacon, confirmation (AID 602386); assay type: functional
Cytochrome P450 3A4 = Cytochrome P450 3A4 (Homo sapiens, UniProt P08684);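 also: CYP3A4 tested as one member of a cytochrome P450 panel screen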
Cytochrome P450 2D6 = Cytochrome P450 2D6 (Homo sapiens, UniProt P10635);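 also: CYP2D6 member of a cytochrome P450 panel assay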
[18] = molecular target: T5, Mannose-6-phosphate isomerase (Homo sapiens, UniProt P34949); assay: MPI inhibition at elevated mannose 6-phosphate – biochemical, fluorescence intensity, high mannose 6-phosphate, primary screen (AID 1220)
T5 sequence (P34949 whole entry): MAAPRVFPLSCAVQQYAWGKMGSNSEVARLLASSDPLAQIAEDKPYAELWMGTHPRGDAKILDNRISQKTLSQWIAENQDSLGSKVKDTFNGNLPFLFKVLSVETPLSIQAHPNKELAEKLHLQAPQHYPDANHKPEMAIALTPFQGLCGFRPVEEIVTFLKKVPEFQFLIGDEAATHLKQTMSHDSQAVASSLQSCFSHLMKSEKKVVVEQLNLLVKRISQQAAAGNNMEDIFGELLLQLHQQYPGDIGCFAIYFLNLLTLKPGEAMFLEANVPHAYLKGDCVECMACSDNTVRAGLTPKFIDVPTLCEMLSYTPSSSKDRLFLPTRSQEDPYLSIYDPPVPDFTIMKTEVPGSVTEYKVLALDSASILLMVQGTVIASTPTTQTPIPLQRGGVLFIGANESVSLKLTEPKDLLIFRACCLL

HeLa = assay: ATP-based viability loss in HeLa cells – cell-based, CellTiter-Glo luminescence, cherry-pick samples, cytotoxicity control for MITF activator project, dose response (AID 540259); assay type: functional; details: Homo sapiens
[19] = molecular target: T6, Probable nicotinate-nucleotide adenylyltransferase (Staphylococcus aureus (strain N315), UniProt P65502); assay type: functional, Staphylococcus aureus subsp. aureus N315;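 as to IC50 Mean: confirmatory dose-response retesting of NadD inhibitor hits first found in an ultra-high-throughput screen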
[20] = molecular target: T6, Probable nicotinate-nucleotide adenylyltransferase; assay type: functional, Staphylococcus aureus subsp. aureus N315; details: read-out: IC50_Mean
[21] = molecular target: Voltage-gated inwardly rectifying potassium channel KCNH2 (Homo sapiens, UniProt Q12809); details: Potency;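 also: confirmatory quantitative high-throughput screen measuring inhibition of hERG channel activity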
Sequence of Voltage-gated inwardly rectifying potassium channel KCNH2 (Q12809 whole entry): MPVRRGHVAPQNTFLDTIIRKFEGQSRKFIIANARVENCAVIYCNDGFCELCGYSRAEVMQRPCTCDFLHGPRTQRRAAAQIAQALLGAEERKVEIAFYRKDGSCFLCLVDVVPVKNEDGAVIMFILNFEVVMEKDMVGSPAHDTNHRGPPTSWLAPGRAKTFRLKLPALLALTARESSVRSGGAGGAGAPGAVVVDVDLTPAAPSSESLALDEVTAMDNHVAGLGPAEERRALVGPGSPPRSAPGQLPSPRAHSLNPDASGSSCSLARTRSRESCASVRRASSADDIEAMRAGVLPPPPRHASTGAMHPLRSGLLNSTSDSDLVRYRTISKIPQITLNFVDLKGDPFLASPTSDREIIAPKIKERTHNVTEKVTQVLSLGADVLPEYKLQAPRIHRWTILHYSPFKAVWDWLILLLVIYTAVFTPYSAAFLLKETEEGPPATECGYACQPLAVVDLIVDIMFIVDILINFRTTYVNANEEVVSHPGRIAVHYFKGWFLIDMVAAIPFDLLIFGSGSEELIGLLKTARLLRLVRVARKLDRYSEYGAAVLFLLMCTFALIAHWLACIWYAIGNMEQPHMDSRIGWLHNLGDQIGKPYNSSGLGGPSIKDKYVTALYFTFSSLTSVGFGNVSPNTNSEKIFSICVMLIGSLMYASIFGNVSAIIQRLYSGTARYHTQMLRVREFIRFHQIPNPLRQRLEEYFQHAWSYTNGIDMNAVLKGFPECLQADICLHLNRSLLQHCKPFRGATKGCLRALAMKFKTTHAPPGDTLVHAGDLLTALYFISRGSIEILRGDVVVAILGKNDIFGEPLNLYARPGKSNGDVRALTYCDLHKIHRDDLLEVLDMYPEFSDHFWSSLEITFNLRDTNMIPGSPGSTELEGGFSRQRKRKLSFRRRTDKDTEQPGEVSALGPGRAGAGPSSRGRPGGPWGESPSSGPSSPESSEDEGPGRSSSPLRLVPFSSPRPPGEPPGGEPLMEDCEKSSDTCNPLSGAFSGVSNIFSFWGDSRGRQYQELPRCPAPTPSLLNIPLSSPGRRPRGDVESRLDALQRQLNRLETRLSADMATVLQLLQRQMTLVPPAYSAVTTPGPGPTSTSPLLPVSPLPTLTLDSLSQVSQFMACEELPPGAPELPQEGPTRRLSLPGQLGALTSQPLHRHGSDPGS

Sequence of Phospholipase A2 (P04054 whole entry): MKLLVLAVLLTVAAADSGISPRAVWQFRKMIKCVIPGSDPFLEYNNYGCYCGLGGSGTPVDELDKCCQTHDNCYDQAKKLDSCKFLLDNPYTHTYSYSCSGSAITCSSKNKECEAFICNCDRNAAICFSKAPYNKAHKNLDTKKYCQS
T6 sequence (P65502 whole entry): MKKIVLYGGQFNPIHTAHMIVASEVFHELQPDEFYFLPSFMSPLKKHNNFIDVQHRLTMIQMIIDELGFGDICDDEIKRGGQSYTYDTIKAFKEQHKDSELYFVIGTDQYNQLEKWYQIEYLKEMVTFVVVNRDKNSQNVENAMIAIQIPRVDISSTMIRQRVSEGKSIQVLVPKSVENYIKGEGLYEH
Sequence of Glucose-6-phosphate 1-dehydrogenase (P11413 whole entry): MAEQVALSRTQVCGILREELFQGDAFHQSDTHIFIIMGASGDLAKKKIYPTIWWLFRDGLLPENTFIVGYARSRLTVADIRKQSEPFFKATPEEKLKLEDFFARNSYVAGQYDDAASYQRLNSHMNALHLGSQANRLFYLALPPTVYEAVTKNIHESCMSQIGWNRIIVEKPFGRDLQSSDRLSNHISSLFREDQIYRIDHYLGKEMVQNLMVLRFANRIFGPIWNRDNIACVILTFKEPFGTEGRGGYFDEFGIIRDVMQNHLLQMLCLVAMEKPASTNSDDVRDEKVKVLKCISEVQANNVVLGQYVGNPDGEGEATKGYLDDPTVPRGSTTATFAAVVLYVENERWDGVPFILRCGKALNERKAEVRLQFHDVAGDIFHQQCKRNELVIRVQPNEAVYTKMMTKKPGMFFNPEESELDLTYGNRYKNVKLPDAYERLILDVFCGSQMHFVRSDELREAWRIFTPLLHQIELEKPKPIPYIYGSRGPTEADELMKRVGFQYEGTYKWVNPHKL
Sequence of DNA (cytosine-5)-methyltransferase 1 (P26358 whole entry): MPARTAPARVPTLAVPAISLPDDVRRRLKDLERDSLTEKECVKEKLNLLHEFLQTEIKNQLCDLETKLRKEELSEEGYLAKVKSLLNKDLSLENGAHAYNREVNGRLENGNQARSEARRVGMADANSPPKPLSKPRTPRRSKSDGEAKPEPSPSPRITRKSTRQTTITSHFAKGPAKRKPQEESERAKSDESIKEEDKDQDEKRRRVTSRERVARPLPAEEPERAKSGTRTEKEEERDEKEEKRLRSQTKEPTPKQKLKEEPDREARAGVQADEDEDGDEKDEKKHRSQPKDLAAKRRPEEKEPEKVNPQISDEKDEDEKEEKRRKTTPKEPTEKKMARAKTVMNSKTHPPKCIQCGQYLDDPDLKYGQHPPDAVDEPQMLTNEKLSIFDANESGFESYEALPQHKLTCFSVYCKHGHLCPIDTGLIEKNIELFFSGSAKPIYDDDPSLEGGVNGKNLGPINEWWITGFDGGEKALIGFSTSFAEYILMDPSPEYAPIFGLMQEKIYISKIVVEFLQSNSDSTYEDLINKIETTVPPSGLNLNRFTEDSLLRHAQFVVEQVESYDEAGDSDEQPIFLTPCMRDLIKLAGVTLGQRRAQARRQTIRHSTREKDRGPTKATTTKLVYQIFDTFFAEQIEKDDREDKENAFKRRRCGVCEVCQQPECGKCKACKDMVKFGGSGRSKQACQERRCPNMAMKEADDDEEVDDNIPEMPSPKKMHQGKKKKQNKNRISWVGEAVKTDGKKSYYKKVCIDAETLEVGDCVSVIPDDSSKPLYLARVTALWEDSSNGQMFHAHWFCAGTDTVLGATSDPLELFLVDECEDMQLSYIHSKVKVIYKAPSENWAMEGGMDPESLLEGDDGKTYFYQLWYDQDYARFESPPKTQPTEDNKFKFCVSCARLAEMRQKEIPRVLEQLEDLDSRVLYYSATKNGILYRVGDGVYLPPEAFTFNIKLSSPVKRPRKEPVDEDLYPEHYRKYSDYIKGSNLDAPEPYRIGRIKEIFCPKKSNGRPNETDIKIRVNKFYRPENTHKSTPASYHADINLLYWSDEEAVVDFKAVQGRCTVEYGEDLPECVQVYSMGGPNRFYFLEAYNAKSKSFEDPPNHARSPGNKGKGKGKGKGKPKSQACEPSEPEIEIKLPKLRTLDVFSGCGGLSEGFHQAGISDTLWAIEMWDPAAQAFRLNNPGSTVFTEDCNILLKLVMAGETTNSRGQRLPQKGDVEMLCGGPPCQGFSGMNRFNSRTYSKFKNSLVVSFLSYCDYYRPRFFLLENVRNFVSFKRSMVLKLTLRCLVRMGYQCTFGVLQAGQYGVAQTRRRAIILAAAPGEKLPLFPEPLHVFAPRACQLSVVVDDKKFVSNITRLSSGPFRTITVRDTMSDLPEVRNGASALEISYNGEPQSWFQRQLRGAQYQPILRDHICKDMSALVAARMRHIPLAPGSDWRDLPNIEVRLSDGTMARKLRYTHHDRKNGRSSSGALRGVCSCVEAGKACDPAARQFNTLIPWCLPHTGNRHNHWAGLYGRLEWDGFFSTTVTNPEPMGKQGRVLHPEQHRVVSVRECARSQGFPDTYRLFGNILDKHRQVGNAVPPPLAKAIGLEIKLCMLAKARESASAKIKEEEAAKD
Sequence of Beta-2 adrenergic receptor (P07550 whole entry): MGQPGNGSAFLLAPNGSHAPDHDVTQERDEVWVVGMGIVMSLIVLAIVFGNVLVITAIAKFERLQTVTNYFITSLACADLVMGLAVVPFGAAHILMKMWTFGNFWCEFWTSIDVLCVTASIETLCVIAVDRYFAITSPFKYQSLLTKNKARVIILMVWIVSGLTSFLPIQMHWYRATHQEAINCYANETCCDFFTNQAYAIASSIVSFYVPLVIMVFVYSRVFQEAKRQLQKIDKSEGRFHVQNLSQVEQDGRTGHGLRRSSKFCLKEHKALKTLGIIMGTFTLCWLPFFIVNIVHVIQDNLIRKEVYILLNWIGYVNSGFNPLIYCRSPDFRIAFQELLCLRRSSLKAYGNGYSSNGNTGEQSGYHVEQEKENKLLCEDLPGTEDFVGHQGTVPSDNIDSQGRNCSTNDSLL
Sequence of Cytochrome P450 2D6 (P10635 whole entry): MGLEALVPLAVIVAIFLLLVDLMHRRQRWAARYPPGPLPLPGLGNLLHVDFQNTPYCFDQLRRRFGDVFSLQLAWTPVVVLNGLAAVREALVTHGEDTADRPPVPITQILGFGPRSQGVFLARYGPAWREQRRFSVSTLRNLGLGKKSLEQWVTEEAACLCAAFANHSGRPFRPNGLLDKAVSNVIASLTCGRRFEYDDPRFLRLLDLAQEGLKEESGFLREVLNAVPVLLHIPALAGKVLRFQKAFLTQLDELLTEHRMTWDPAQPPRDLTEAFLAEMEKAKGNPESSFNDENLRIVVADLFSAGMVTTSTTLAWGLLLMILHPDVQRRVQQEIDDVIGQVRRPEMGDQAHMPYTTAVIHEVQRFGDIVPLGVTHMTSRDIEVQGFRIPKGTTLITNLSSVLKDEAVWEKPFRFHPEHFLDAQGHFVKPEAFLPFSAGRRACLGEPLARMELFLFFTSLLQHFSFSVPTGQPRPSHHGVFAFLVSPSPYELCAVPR
Sequence of Cytochrome P450 3A4 (P08684 whole entry): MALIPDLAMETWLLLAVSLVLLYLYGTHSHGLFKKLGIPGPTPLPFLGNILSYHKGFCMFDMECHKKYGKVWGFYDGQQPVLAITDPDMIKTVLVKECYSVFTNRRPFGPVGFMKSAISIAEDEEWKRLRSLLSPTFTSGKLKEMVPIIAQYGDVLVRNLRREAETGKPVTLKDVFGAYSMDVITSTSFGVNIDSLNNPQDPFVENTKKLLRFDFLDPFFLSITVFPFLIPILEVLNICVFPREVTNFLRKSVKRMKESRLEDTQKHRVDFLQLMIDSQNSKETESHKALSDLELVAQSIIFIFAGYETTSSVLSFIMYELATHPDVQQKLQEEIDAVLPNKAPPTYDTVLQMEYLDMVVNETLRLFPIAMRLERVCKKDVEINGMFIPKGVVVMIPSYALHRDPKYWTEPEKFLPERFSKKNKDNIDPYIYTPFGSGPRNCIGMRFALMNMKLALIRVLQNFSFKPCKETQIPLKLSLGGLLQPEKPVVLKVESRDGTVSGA

For COc1ccc(C2c3c(ncn(CCCN4CCOCC4)c3=N)Oc3ccc4ccccc4c32)cc1OC (stereo not drawn), the IC50 (Vero [1]) was 23.8 µM (active) and the CC50 (Vero [2]) was > 25 µM (active).

For CS(=O)(=O)c1ccc(C(=O)OCc2nnc(-c3ccccc3)o2)cc1[N+](=O)[O-], the EC50 [3] was 6.24 µM (active), the EC50 [4] was 4.95 µM (active) and the EC50 (HEK293 [5]) was > 59.6 µM (inactive). The EC50 [6] was 8.57 µM (inconclusive), the EC50 (Protein RecA) was 2.66 µM (active) and the AC50 [7] was 13.4 µM (active). The IC50 [8] was 3.01 µM (active), the AC50 [9] was 20.2 µM (active) and the AC50 [10] was 6.14 µM (active). The AC50 [11] was 12.1 µM (active), the AC50 [12] was 7.57 µM (active) and the AC50 [13] was 8.73 µM (active). The EC50 (HEK293 [14]) was > 59.6 µM (inactive) and the EC50 [15] was 19 µM (inactive).

With CCOC(=O)c1sc(-c2ccccc2)cc1NC(=O)Nc1ccccc1 the IC50 (Phospholipase A2) was 9.28 µM (active), the EC50 [3] was 16.8 µM (active) and the EC50 [4] was 3.49 µM (active). The IC50 (Cysteine protease ATG4B) was 21.9 µM (inactive).

In the case of CC(=O)OCC1(C)CN(c2ccccc2)NC1=O (stereo not drawn), the IC50 [16] is reported as 46.7 µM (inactive).

For CC(C)(C)CC(=O)Nc1cccc2c1CCCC2, the IC50 [17] was > 99 µM (inactive).

With CCCc1cc(=O)[nH]c(SCc2cc(Cl)ccc2OC(F)F)n1 the IC50 (Phospholipase A2) was 9.01 µM (active), the IC50 (Cysteine protease ATG4B) was 9.02 µM (active) and the AC50 (Cytochrome P450 3A4) was 1.12 µM (inconclusive). The AC50 (Cytochrome P450 2D6) was 20 µM (inconclusive).

For COc1ccc(NS(=O)(=O)c2ccc(N3CCCC3)c(NC(=S)Nc3cccc(C)c3C)c2)cc1, the IC50 [16] was > 80 µM (inactive) and the IC50 [18] was > 50 µM (not active).

For Cc1nc(N2CCN(S(=O)(=O)c3ccccc3)CC2)c2cc(-c3ccccc3)sc2n1, the AC50 (HeLa) was > 350 µM (inactive).

With O=C1NC(=O)N(CCc2ccccc2)C(=O)/C1=C(O)/C=C/c1ccccc1 the IC50 (Vero [1]) was > 25 µM (active) and the CC50 (Vero [2]) was 13.3 µM (active).

With OCC1(CCOc2ccccc2)CCN(Cc2nc3cc(F)ccc3[nH]2)CC1 the IC50 (Vero [1]) was 24.6 µM (active).

With O=C(Nc1ccccc1O)c1cc2cc(Br)ccc2oc1=O the AC50 (HeLa) was 221 µM (active).

For O=C(O)c1cc2c(cc1NC(=O)c1ccccc1OC(F)F)OCCCO2, the IC50 (Phospholipase A2) was 6.69 µM (active) and the IC50 (Cysteine protease ATG4B) was 9.56 µM (active).

With CC(=NNc1nc2ccccc2s1)c1ccncn1 the IC50 (Vero [1]) was > 25 µM (active) and the CC50 (Vero [2]) was 5.47 µM (active).

With NC(CSC(c1ccccc1)(c1ccccc1)c1ccc(-c2ccccc2)cc1)C(=O)O (stereo not drawn) the IC50 [19] was 11.5 µM (active), the IC50 [20] was 24 µM (active) and the IC50 [17] was 9.65 µM (active).

For CCS(=O)(=O)Nc1cccc(C(=C2CCCCC2)c2c[nH]cn2)c1, the AC50 [21] was 14.1 µM (inconclusive).

In the case of CCn1cnc2c(Nc3cccc(Cl)c3)nc(C#N)nc21, the AC50 (HeLa) is reported as 50 µM (active).

For CCCN(CCC)CCc1ccc(O)c(O)c1 [DIPROPYLDOPAMINE HYDROBROMIDE], the AC50 [21] was 15.8 µM (inconclusive).
